# Measured values from US9771331B2, “Methods of identifying neuroprotective compounds for retinal ganglion cells” (THE JOHNS HOPKINS UNIVERSITY, priority 2005, dated 2017).
# Entries after “also recorded” stand apart in the source; their conditions may differ.
# Columns and labels:
# [1] = system: retinal ganglion cells (RGCs); assay: High-content neurite outgrowth screen of purified retinal ganglion cell cultures (number of outgrowth neurons); format: cell-based, rat; details: for number of outgrowth neurons: 50 ng/ml, 120 hours, versus cultures grown in medium only; for activity compared with TPAO / activity of compounds similar to TPAO: 4 different concentrations
# Method: Retinal ganglion cell harvest and immunopurification are performed as described above and in the specific Examples, below. A concentration range of neuroprotective compounds to be validated is prepared and added to test wells (e.g., to achieve final concentrations of 3 μM, 10 μM, 15 μM, 30 μM, 60 μM, 90 μM, 120 μM, and 150 μM in 1% DMSO in each well). For a neuroprotective compound obtained from the […]™ library, for example, 1 mg of desiccated compound can be resuspended in 22.2 μl of DMSO to a final stock solution of 150 mM. […] Afterwards, the solution can be stored in the dark at −20° C.
# Neuroprotective compounds and positive control factors are added to the appropriate wells of a 96-well plate (e.g., 25 μl to each well in a 5× concentration prior to the seeding cells in a volume of 100 μl giving a final volume of 125 μl). Cells are incubated, stained, and imaged as described above and in the specific Examples, below. Experiments preferably are performed in duplicate. Following normalization to a negative control (e.g., a well containing medium only), a dose response curve can be plotted. Statistical software (e.g., from SPSS) can be used to perform curve fitting and analysis.
# An efficient two-step immunomagnetic purification of a mixed cell population obtained from postnatal rat retina is used to provide a highly enriched population of RGCs for culture. The first step is an immunomagnetic depletion of […] non-RCGS using a cd11b/c. The second step is an immunomagnetic selection of RGCs with an antibody that binds Thy1 on the RGC cell surface. The cells are then released from the magnetic beads by digesting the DNA linker with a low concentration of DNase. Cells are grown on poly-d-lysine/laminin coated plastic plates in a basic medium (Neurobasal media, B27 supplement, glutamine, and penicillin/streptomycin).
# (§1) The purified Thy-1 immunoreactive cells are resuspended in growth media (Neurobasal media, B27 supplement, 2 mM glutamine, and 1 U/ml penicillin/streptomycin) and quantified using a hematocytometer. Cells are seeded in 100 μl at a density of 4000 cells/well (150/mm^2) in 96 well culture dishes (Falcon) that had been sequentially coated with poly-d-lysine (0.01 mg/ml) and laminin (0.01 μg/μl) (Sigma). Each well either contains 25 μl of media alone or 5× drug or 5×BDNF and forskolin. Final concentrations are: DMSO (1%), drug (20 to 30 μM), BDNF (50 ng/ml) and forskolin (10 μM). Culture dishes are placed in an incubator maintained at 37° C. and 5% CO2. One hour after seeding, a post-seeding viability is determined by staining with Hoechst and TOTO3 and calculating the percent of live cells.
# (§2) After 120 hours of incubation, cells are stained with 5 μM Hoechst and 10 μM Calcein AM (Molecular Probes). Calcein AM (Calcein acetoxymethyl), the dye that is used to stain living cells and their neurites, is a green dye that is permeant to living cells. After internalization by cells, the nonfluorescent calcein AM is converted to fluorescent calcein upon hydrolysis of the acetoymethyl ester by intracellular esterases. Cleavage of the AM group occurs spontaneously when calcein AM is suspended in aqueous solution resulting in a significant increase in background fluorescence over time. TOTO3, which stains the nuclei of dead cells, can be used to determine viability.
# Fifteen stereotypic field are autofocus imaged on a Cellomics […]® High Content Scan Reader using epifluorescence and filter sets corresponding to each of the two dyes. This instrument employs a Zeiss fluorescence microscope, a temperature and CO2 live cell chamber, an integrated liquid handling system, and image analysis software that permits staining, imaging, and analysis of the cells and their neurites in approximately 5 hours per plate.
# [2] = system: retinal ganglion cells (RGCs); assay: Overall cell survival of cultured RGCs after 120 hours; format: cell-based, rat; details: 50 ng/ml
# Method: as §1, §2
# Images are processed using the Cellomics Extended Neurite Outgrowth software program. In the initial image processing, cells are identified on the Hoechst channel and selected based on size such that of clusters of cells may be excluded from analysis. In addition, each nuclei on the Hoechst channel is matched to a calcein-stained cell and counted as a “valid neuron” (i.e., a live cell). Neurons can be further selected based on size in the calcein channel. The Extended Neurite Outgrowth program is used to trace neurites extending from these selected neurons. The mean neurite length, mean neurite count, mean number of branch points, and mean number of crosspoints are determined. In addition, the percent of cells with neurite features (e.g., neurite length, neurite count) surpassing a threshold of one standard deviation above the mean neurite characteristic of a set of reference wells containing cells and growth medium without additional growth factors is determined. The “neurite outgrowth” measurement is based on the combined mean neurite length and mean neurite count.
# [3] = system: RGCs; details: peptide trophic factors; Meyer-Franke et al. 1995; cited from earlier work
# [4] = system: retinal ganglion cells (RGCs); assay: RGCs on glass coverslips in 24-well plates, neurofilament immunostaining, counting neurons with neurite extension; format: cell-based, rat; details: neurofilament antibody
# Method: FIG. 4. […] Immunopurified postnatal rat RGCs were cultured in increasing concentrations of TPAO in the presence of 1% DMSO. […] The effect of TPAO is synergistic with both BDNF and forskolin.
# Although the developed technique for performing cell culture is effective and objective, it is desirable to assess the outcome of a screen using a different technique. Thus, for example, the technique of culturing cells on poly d-lysine and laminin coated coverslips in 24 well culture dishes under various culture conditions can be followed by immunostaining with anti-neurofilament antibody and quantitative analysis.
# After determination of the dose response relationship and concentration at which the neuroprotective compound has it is maximal effect in culture, cells can be cultured on poly d-lysine and laminin coated cover slips (BD Pharmingen) in the presence of the neuroprotective compound, with appropriate positive and negative controls. […]
# For example, in one embodiment cells are fixed with 4% paraformaldehyde, washed with PBS, blocked with PBS/0.1% Triton X/20% goat serum, and incubated overnight in PBS/0.1% Triton X/20% goat serum containing 1:100 dilution of rabbit anti-neurofilament (68 kd) antibody (Chemicon). […] The number of cells with neurite outgrowth at 3 different radii is determined (Scholl analysis) and compared using Student t test.
Molecule,number of outgrowth neurons [1],overall cell survival (number of surviving cells) [2],other results
BDNF: peptide trophic factor known to promote RGC survival; positive control,significantly increased; also recorded: Statistically significant increases,slight increase in the number of surviving cells that did not reach statistical significance,concentration of maximal effect on RGCs [3]: 10 ng/mL
TGFα: growth factor tested at 50 ng/ml on cultured RGCs,No significant change,no effect,
GDF8: BMP-related myostatin/Gdf8 (Growth and differentiation factor 8),significantly increased; also recorded: Statistically significant increases,slight increase in the number of surviving cells that did not reach statistical significance,
TGFβ1: growth factor tested at 50 ng/ml on cultured RGCs,No significant change,no effect,
"CC(=O)ON=C1CC(C)(C)NC(C)(C)C1 [TPAO, 2,2,6,6-tetramethyl-4-piperidinone O-acetyloxime]",,,effect in combination with BDNF and forskolin [1]: synergistic; dose dependence of survival/growth of neurite-bearing RGCs ([1]; dose response 3 μM to 150 μM): dose-dependent manner; activity if the medium was changed at 24 hours ([1]; medium change at 24 hours): lost; effect on neurons with a neurite extension greater than one cell body in diameter [4]: demonstrated
"CC1(C)CC(=NOC(=O)c2ccccc2)CC(C)(C)N1 [2,2,6,6-tetramethyl-4-piperidinone O-benzoyloxime]",,,activity compared with TPAO [1]: less than that of TPAO; activity of compounds similar to TPAO [1]: showed activity
"CC1(C)CC(=NNC(N)=S)CC(C)(C)N1 [2,2,6,6-tetramethyl-4-piperidinone thiosemicarbazone]",,,activity compared with TPAO [1]: less than that of TPAO; activity of compounds similar to TPAO [1]: showed activity
"CNTF: peptide trophic factor (protein, UniProt P26441 1-200, looked up) Ciliary neurotrophic factor: MAFTEHSPLTPHRRDLCSRSIWLARKIRSDLTALTESYVKHQGLNKNINLDSADGMPVASTDQWSELTEAERLQENLQAYRTFHVLLARLLEDQQVHFTPTEGDFHQAIHTLLLQVAAFAYQIEELMILLEYKIPRNEADGMPINVGDGGLFEKKLWGLKVLQELSQWTVRSIHDLRFISSHQTGIPARGSHYIANNKKM",,,concentration of maximal effect on RGCs [3]: 0.1 ng/mL
"TGFβ2: growth factor tested at 50 ng/ml on cultured RGCs (protein, UniProt P61812 303-414, looked up) Transforming growth factor …: ALDAAYCFRNVQDNCCLRPLYIDFKRDLGWKWIHEPKGYNANFCAGACPYLWSSDTQHSRVLSLYNTINPEASASPCCVSQDLEPLTILYYIGKTPKIEQLSNMIVKSCKCS",No significant change,no effect,
"BMP13: bone morphogenetic protein, member of the TGFβ superfamily (protein, UniProt Q6KF10 336-455, looked up) Growth/differentiation factor …: TAFASRHGKRHGKKSRLRCSKKPLHVNFKELGWDDWIIAPLEYEAYHCEGVCDFPLRSHLEPTNHAIIQTLMNSMDPGSTPPSCCVPTKLTPISILYIDAGNNVVYKQYEDMVVESCGCR",significantly increased; also recorded: Statistically significant increases,no effect,
